Counter-ions that a name gives are not always drawn.
Biological target: T1, ABCB6 (ABCB6-flag) (Homo sapiens, UniProt Q9NP58)
T1 construct: wild-type ABCB6, C-terminal FLAG tag kept; stably expressed (CMV promoter) in K562 cells (whole cells, mitochondria)
T1 sequence (Q9NP58 1-842): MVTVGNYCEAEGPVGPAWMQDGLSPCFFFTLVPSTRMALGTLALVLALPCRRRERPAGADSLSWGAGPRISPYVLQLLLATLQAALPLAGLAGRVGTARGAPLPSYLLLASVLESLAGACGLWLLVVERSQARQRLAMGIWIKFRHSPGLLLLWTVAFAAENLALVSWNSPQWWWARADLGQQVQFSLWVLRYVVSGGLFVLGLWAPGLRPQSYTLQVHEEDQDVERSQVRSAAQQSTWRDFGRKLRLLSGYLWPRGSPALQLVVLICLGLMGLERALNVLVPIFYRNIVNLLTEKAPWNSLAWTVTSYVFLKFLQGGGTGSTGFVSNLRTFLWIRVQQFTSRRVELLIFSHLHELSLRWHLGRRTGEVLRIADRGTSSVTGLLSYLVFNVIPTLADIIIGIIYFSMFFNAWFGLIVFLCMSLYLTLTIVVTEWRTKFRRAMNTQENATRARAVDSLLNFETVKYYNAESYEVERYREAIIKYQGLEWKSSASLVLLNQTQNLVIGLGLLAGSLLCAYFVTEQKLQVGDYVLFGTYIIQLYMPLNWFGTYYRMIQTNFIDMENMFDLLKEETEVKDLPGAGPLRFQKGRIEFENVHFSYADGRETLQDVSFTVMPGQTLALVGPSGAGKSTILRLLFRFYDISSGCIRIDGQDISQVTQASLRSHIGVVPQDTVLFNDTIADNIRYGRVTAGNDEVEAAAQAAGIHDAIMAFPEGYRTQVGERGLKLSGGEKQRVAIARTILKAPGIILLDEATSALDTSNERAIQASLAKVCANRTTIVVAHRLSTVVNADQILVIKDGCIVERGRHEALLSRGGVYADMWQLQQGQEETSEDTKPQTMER
Experiment: displacement of ABCB6 from hemin-agarose (mitochondrial fraction; dose dependent also with purified ABCB6-flag)
Type: binding

For C[C@H]1CC[C@]2(NC1)O[C@H]1C[C@H]3[C@@H]4CC[C@H]5C[C@@H](O[C@@H]6O[C@H](CO)[C@H](O[C@@H]7O[C@H](CO)[C@@H](O)[C@H](O[C@@H]8OC[C@@H](O)[C@H](O)[C@H]8O)[C@H]7O[C@@H]7O[C@H](CO)[C@@H](O)[C@H](O)[C@H]7O)[C@H](O)[C@H]6O)CC[C@]5(C)[C@H]4CC[C@]3(C)[C@H]1[C@@H]2C [THC, tomatine hydrochloride], the inhibition at 5 µM was greater than 50%.
